US4552874A, “Pyrazolooxazines, pyrazolothiazines, and pryazoloquinolines and their use as medicaments” (Bayer Aktiengesellschaft, priority 1982, dated 1985)

Experiments:
carrageenan oedema = test: Inhibition of carrageenan oedema formation; assay type: in vivo; details: rat, oral administration of 25 mg/kg
Text: The compounds according to the invention are also active in vivo. […] The compounds according to the invention also reduce the formation of oedema in the model of carrageenan inflammation, (compare Table 3) and inhibit the formation of metastases from B-16 melanoma (method of Honn, et. al. Science 212, 1270, 1981).

[1] = test system: Lipoxygenase in PMN Leucocytes; test: Inhibition of lipoxygenase in PMN leucocytes (liberation of 5-HETE and leukotriene B4); assay type: cell-based, humans and rabbits; details: in vitro
Protocol: The polymorphonuclear leucocytes of humans and of rabbits metabolise arachidonic acid to 5-hydroxy-5,8,11,14-eicosatetraenoic acid (5-HETE) and leukotriene B4 (5S, 12R-dihydroxy-6 cis, 8,10-trans-14 cis-eicosatetraenoic acid). The inhibition of the liberation of 5-HETE and leukotriene B4 from the leucocytes provides a measure of the lipoxygenase-inhibitory effect of the compounds according to the invention. (Compare Table 1).
The test with human leucocytes is carried out by the method of Borgeat and Samuelsson (j. Biol. Chem. 254; 2643, 1979 and Proc. Natl. Acad. Sci. USA, 76, 2148 (1979), and with rabbit leucocytes by the method of Walker and Parish (Inter. Archs. Allergy appl. Immun. 66, 83, 1981).

SMILES	inhibition in vivo at 25 mg/kg (carrageenan oedema) [%]	Minimum concentration (g/ml) for inhibition of Lipoxygenase in PMN Leucocytes [1]
COc1ccc2c(c1)N(C)c1[nH]ncc1O2 [Compound 36]	60	
OCCN1c2ccccc2Oc2cn[nH]c21		< 10^-5 g/ml
CCOC(=O)Cn1cc2c(n1)N(C1CCCCC1)c1ccccc1O2 [drawing 50]		> 10^-5 g/ml
CC(=O)n1cc2c(n1)N(C)c1ccccc1C2 [Compound 27]	62.4	
CCOC(=O)Cn1cc2c(n1)N(C1CCCCC1)c1ccccc1O2 [Compound 39, Ethyl (9-cyclohexylpyrazolo[4,3-b][1,4]benzoxazin-2-yl) acetate]	47.5	
c1c2c(cc3c1OCO3)Oc1cn[nH]c1N2		< 10^-5 g/ml
Cc1ccc2c(c1)Nc1[nH]ncc1O2 [Compound 3]	41.4	
CN1c2ccccc2Cc2cn(C(=O)OCc3ccccc3)nc21		> 10^-5 g/ml
Clc1ccc2c(c1)Nc1[nH]ncc1O2 [Compound 2]	57.8	
COc1ccc2c(c1)Oc1cn[nH]c1N2C		< 10^-5 g/ml
CN1c2ccccc2Oc2cn(CCOc3ccc4ccccc4c3)nc21		> 10^-5 g/ml
CN1c2cc(OCc3ccccc3)ccc2Oc2cn[nH]c21		< 10^-5 g/ml
CN1c2ccccc2Cc2cnn(C(=O)c3ccc(Cl)cc3)c21		> 10^-5 g/ml
COc1ccc2c(c1)Oc1cnn(C)c1N2C		> 10^-5 g/ml
c1ccc(-n2ncc3c2Nc2ccccc2O3)cc1 [Compound 9]	75.1	
c1ccc(COCCN2c3ccccc3Oc3cn[nH]c32)cc1		10^-5 g/ml
Clc1cc(Cl)c2c(c1)Nc1[nH]ncc1O2		10^-6 g/ml
c1ccc2c(c1)Oc1cn[nH]c1N2C1CCCCC1 [drawing 56]		10^ -6 g/ml
COc1ccc2c(c1)Oc1cn[nH]c1N2		< 10^-6 g/ml

SMILES	inhibition in vivo at 25 mg/kg (carrageenan oedema) [%]	Minimum concentration (g/ml) for inhibition of Lipoxygenase in PMN Leucocytes [1]
CC(C)N1c2ccccc2Oc2cn[nH]c21		< 10^-6 g/ml
FC(F)(F)Sc1ccc2c(c1)Nc1[nH]ncc1O2		< 10^-5 g/ml
CN1c2ccccc2Oc2cn(Cc3ccc(Cl)c(Cl)c3)nc21		> 10^-5 g/ml
Cn1cc2c(n1)N(c1ccccc1)c1ccccc1C2		> 10^-5 g/ml
c1ccc(N2c3ccccc3Oc3cn[nH]c32)cc1		10^-5 g/ml
CN1c2ccccc2Oc2cn(C(=O)c3ccccn3)nc21 [drawing 53]		> 10^-5 g/ml
CCN1c2cc(OCC(=O)OCc3ccccc3)ccc2Oc2cn(C)nc21		10^-5 g/ml
COc1ccc2c(c1)N(C)c1nn(C)cc1O2		> 10^-5 g/ml
CC(=O)n1cc2c(n1)N(C)c1ccccc1O2 [drawing 55]		> 10^-5 g/ml
COc1ccc2c(c1)Nc1c(cnn1C(C)=O)O2		10^-5 g/ml
CCN1c2cc(OCC(=O)O)ccc2Oc2cn(C)nc21		10^ -5 g/ml
CN1c2nn(C)cc2Cc2cccc(Br)c21 [Compound 30]		10^-5 g/ml
CCN1c2cc(OC)ccc2Oc2cnn(C)c21 [drawing 49]		10^-6 g/ml
c1ccc(N2c3ccccc3Cc3cn[nH]c32)cc1		> 10^-5 g/ml
CCCCOc1ccc2c(c1)N(C)c1[nH]ncc1O2 [Compound 70]		< 10^-5 g/ml
FC(F)(F)c1ccc2c(c1)Nc1[nH]ncc1O2		< 10^-5 g/ml
CCN1c2cc(OC)ccc2Oc2cn[nH]c21		< 10^-6 g/ml
CC(=O)n1cc2c(n1)N(C)c1ccccc1S2		> 10^-5 g/ml
Cn1cc2c(n1)N(CC1CCCCC1)c1ccccc1O2		> 10^-5 g/ml

SMILES	inhibition in vivo at 25 mg/kg (carrageenan oedema) [%]	Minimum concentration (g/ml) for inhibition of Lipoxygenase in PMN Leucocytes [1]
CCN1c2cc(OC)ccc2Oc2cnn(C)c21 [Compound 50]		10^-5 g/ml
CCN1c2ccc(OC)cc2Oc2cn[nH]c21		< 10^-5 g/ml
COc1ccc2c(c1)Nc1[nH]ncc1O2		< 10^-6 g/ml
Cc1ccc2c(c1)Nc1c(cnn1-c1ccccc1)S2		10^-5 g/ml
Cn1ncc2c1N(c1ccccc1)c1ccccc1C2		> 10^-5 g/ml
CCN1c2cc(O)ccc2Oc2cn(C)nc21		< 10^-5 g/ml
CCOC(=O)CN1c2ccccc2Oc2cn[nH]c21		> 10^-5 g/ml
CN1c2cc(SC(F)(F)F)ccc2Oc2cn[nH]c21 [Compound 71]		< 10^-5 g/ml
CN1c2ccccc2Oc2cn(CCO)nc21		> 10^-5 g/ml
c1ccc(CN2c3ccccc3Oc3cn[nH]c32)cc1		10^-6 g/ml
Cn1cc2c(n1)N(Cc1ccccc1)c1ccccc1O2 [Compound 60]		> 10^-5 g/ml
CN1c2ccccc2Cc2cn(C)nc21		> 10^-5 g/ml
CN1c2ccccc2Cc2cnn(-c3ccccc3)c21		> 10^-5 g/ml
CC(=O)n1cc2c(n1)N(C)c1ccccc1C2 [drawing 38]		> 10^-5 g/ml
c1ccc2c(c1)Oc1cn[nH]c1N2C1CCCCC1 [drawing 59]		> 10^-6 g/ml
COc1ccc2c(c1)N(C)c1[nH]ncc1O2 [drawing 47]		< 10^-6 g/ml
Oc1ccc2c(c1)Nc1[nH]ncc1O2		< 10^-6 g/ml
CC(C)N1c2ccccc2Oc2cn(C)nc21		> 10^-5 g/ml
c1ccc2c(c1)Oc1cn[nH]c1N2CC1CCCCC1		10^-5 g/ml
